The supplement of paper PMC9938120

Tests used:
Assay in all cases: drug sensitivity score (DSS3, normalised partial AUC of % inhibition dose-response) (DSS (score)); higher = more sensitive (stronger inhibition of viability); extreme values may be limits of the assay
FMOC14 = patient-derived high-grade serous ovarian cancer cells; details: 72 h; library: FO5A; assay format: 2D, 384-well, CellTiter-Glo
Summary of the method: (§1)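 Early-passage (under 10) patient-derived ovarian cancer cells were dispensed onto 384-well flat clear-bottom plates pre-plated with compounds at five concentrations spanning a 10,000-fold range, then incubated 72 h at 37 °C, 5% CO2. Viability was read with CellTiter-Glo, and the data were processed in Breeze. The drug sensitivity score is a partial area under the percent-inhibition dose-response curve divided by the log of the upper asymptote, with higher values meaning greater sensitivity.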

FMOC06 = patient-derived mucinous ovarian cancer cells; details: 72 h; library: FO5A; assay format: 2D, 384-well, CellTiter-Glo
Summary of the method: as §1

FMOC25_2 = patient-derived low-grade serous ovarian cancer cells; details: 72 h; library: FO5A; assay format: 2D, 384-well, CellTiter-Glo
Summary of the method: as §1

FMOC09 = patient-derived high-grade serous ovarian cancer cells; details: 72 h; library: FO5A; assay format: 2D, 384-well, CellTiter-Glo
Summary of the method: as §1

FMOC24 = patient-derived high-grade serous ovarian cancer cells; details: 72 h; library: FO5A; assay format: 2D, 384-well, CellTiter-Glo
Summary of the method: as §1

FMOC22 = patient-derived mucinous ovarian cancer cells; details: 72 h; library: FO5A; assay format: 2D, 384-well, CellTiter-Glo
Summary of the method: as §1

FMOC02_2 = patient-derived low-grade serous ovarian cancer cells; details: 72 h; library: FO5A; assay format: 2D, 384-well, CellTiter-Glo
Summary of the method: as §1

FMOC25_1 = patient-derived low-grade serous ovarian cancer cells; details: 72 h; library: FO4B; assay format: 2D, 384-well, CellTiter-Glo
Summary of the method: as §1

FMOC02_3 = patient-derived low-grade serous ovarian cancer cells; details: 72 h; library: FO5A; assay format: 2D, 384-well, CellTiter-Glo
Summary of the method: as §1

FMOC03 = patient-derived mucinous ovarian cancer cells; details: 72 h; library: FO5A; assay format: 2D, 384-well, CellTiter-Glo
Summary of the method: as §1

Compound	drug sensitivity score (FMOC14)	drug sensitivity score (FMOC06)	drug sensitivity score (FMOC25_2)	drug sensitivity score (FMOC09)	drug sensitivity score (FMOC24)	drug sensitivity score (FMOC22)	drug sensitivity score (FMOC02_2)	drug sensitivity score (FMOC25_1)	drug sensitivity score (FMOC02_3)	drug sensitivity score (FMOC03)
COc1cc(Br)c(Nc2nc(-c3c(C)nc4ncccn34)cs2)c(Br)c1 [PTC-209]	2.7	3.5	8.4	6	1.35	4.5	5.5	6.3	4.6	4.6
CC(=O)O[C@H]1C(=O)[C@@]2(C)[C@H]([C@H](OC(=O)c3ccccc3)[C@]3(O)C[C@H](OC(=O)[C@H](O)[C@@H](NC(=O)c4ccccc4)c4ccccc4)C(C)=C1C3(C)C)[C@]1(OC(C)=O)CO[C@@H]1C[C@@H]2O [Paclitaxel]	0.4	10.1	16.7	13.6	0.1	12.5	8.7	6.7	17	11.9
C1=N/C2=N/c3ccc(OCCN4CCCC4)c(c3)COC/C=C/COCc3cccc(c3)C(=C1)N2 [Pacritinib]	5.2	7.6	15.2	5.5	7.95	6.2	10.1	7.8	15.2	6.7
Cc1[nH]c2ccccc2c1CCNCc1ccc(/C=C/C(=O)NO)cc1 [Panobinostat]	15.4	12.8	15.2	5.5	13.3	9.1	12.6	11.2	10.7	11.1
Nc1nc2[nH]cc(CCc3ccc(C(=O)N[C@@H](CCC(=O)O)C(=O)O)cc3)c2c(=O)[nH]1 [Pemetrexed]	0	0.3	3.3	0	1.55	3.4	0	0	0	2.2
NS(=O)(=O)OC[C@@H]1C[C@@H](n2ccc3c(N[C@H]4CCc5ccccc54)ncnc32)C[C@@H]1O [Pevonedistat]	0.3	4.1	20.5	10.1	10.7	12.6	10.2	11.5	10.6	8.2
CS(=O)(=O)N1CCN(Cc2cc3nc(-c4cccc5[nH]ncc45)nc(N4CCOCC4)c3s2)CC1 [Pictilisib]	9.2	10.6	14.3	11.9	5.35	5.1	16.8	12.9	16.1	9.4
CO[C@H](C(=O)[C@@H](O)[C@@H](C)O)[C@@H]1Cc2cc3cc(O[C@H]4C[C@@H](O[C@@H]5C[C@@H](O)[C@H](O)[C@@H](C)O5)[C@H](O)[C@@H](C)O4)c(C)c(O)c3c(O)c2C(=O)[C@H]1O[C@H]1C[C@@H](O[C@@H]2C[C@@H](O)[C@@H](O[C@@H]3C[C@](C)(O)[C@H](O)[C@@H](C)O3)[C@@H](C)O2)[C@H](O)[C@@H](C)O1 [Plicamycin]	10.1	6.2	29.1	2.6	9	5.1	9	7	16.7	4.6
C=CC(=O)N1CCC(Oc2cc3c(Nc4ccc(Cl)c(Cl)c4F)ncnc3cc2OC)CC1 [Poziotinib]	6.5	6.1	20.3	16.7	2.1	0.8	24.2	10.5	21.8	24.6
CCCCc1nc2cc(/C=C/C(=O)NO)ccc2n1CCN(CC)CC [Pracinostat]	12.4	12.7	10.7	5.8	14.8	8.7	13.3	11.6	13.3	12.3
COc1cccc(OCCCN)c1-c1cc(Nc2cnc(C#N)cn2)n[nH]1 [Prexasertib]	22.6	12.6	19.1	19.5	24.7	19.6	15.1	15.3	18.6	11.8
Cn1cc(CNCC2CCN(c3ncc(C(=O)NO)cn3)CC2)c2ccccc21 [Quisinostat]	10.7	9.4	11.2	4.8	13.6	8.1	10.9	9.9	10.8	10.3
Cc1nc(=O)c2cc(CN(C)c3ccc(C(=O)N[C@@H](CCC(=O)O)C(=O)O)s3)ccc2[nH]1 [Raltitrexed]	0.3	0	1.3	0	0.05	3.8	0	0.1	0	1.5
CN(C)Cc1ccc(S(=O)(=O)n2ccc(/C=C/C(=O)NO)c2)cc1 [Resminostat]	8.2	6.8	7.7	3.3	6.3	6.8	9.7	3.4	7.4	8.1
CO[C@H]1C[C@@H]2CC[C@@H](C)[C@@](O)(O2)C(=O)C(=O)N2CCCC[C@H]2C(=O)O[C@H]([C@H](C)C[C@@H]2CC[C@@H](OP(C)(C)=O)[C@H](OC)C2)CC(=O)[C@H](C)/C=C(\C)[C@@H](O)[C@@H](OC)C(=O)[C@H](C)C[C@H](C)/C=C/C=C/C=C/1C [Ridaforolimus]	3.4	5.7	11.8	4.2	0	9.3	11.1	10.3	13.8	4.5
COc1cc(OC)c(/C=C/S(=O)(=O)Cc2ccc(OC)c(NCC(=O)O)c2)c(OC)c1 [Rigosertib]	0.1	14.3	12	15.4	6.5	16.1	16.4	14.3	20.5	18.2

Compound	drug sensitivity score (FMOC14)	drug sensitivity score (FMOC06)	drug sensitivity score (FMOC25_2)	drug sensitivity score (FMOC09)	drug sensitivity score (FMOC24)	drug sensitivity score (FMOC22)	drug sensitivity score (FMOC02_2)	drug sensitivity score (FMOC25_1)	drug sensitivity score (FMOC02_3)	drug sensitivity score (FMOC03)
C=CC(=O)Nc1cccc(Nc2nc(Nc3ccc(N4CCN(C(C)=O)CC4)cc3OC)ncc2C(F)(F)F)c1 [Rociletinib]	5.2	6.7	9.4	8.4	2.45	5.2	12.4	9.2	11.7	8.7
C/C=C1\NC(=O)[C@H]2CSSCC/C=C/[C@H](CC(=O)N[C@H](C(C)C)C(=O)N2)OC(=O)[C@H](C(C)C)NC1=O [Romidepsin]	28.7	27.6	28.9	17.6	32.9	26.3	26.3	30.1	32.6	28.3
CN(C)C[C@@H]1CCn2cc(c3ccccc32)C2=C(C(=O)NC2=O)c2cn(c3ccccc23)CCO1 [Ruboxistaurin]	6.8	8.7	9.3	7.5	6.45	3.2	9.7	5.4	12.8	3
CN1CCC(CNc2ccc3ncc(-c4cccc(OC(F)(F)F)c4)n3n2)CC1 [SGI-1776]	5	6.5	7.4	4.5	8.05	5.9	9.2	7.4	8.8	6.1
CN(CC(=O)N(Cc1ccc(C2CCCCC2)cc1)c1ccc(C(=O)O)cc1)S(=O)(=O)c1c(F)c(F)c(F)c(F)c1F [SH-4-54]	5.9	9	5.5	10.3	6.2	5.3	9.3	6.9	8.8	6.2
CCc1c2c(nc3ccc(O)cc13)-c1cc3c(c(=O)n1C2)COC(=O)[C@]3(O)CC [SN-38]	20.4	21.8	29.1	15.1	24.8	31	21.3	24.4	32.5	20.2
CC(C)(C)c1cnc(CSc2cnc(NC(=O)C3CCNCC3)s2)o1 [SNS-032]	17.9	23.2	25.4	11.6	17.9	12	19.4	20.8	25.5	17.4
Cc1cc2c(C(=O)NC[C@H](C)c3ccccc3)c(O)c(O)cc2c(O)c1-c1c(C)cc2c(C(=O)NC[C@H](C)c3ccccc3)c(O)c(O)cc2c1O [Sabutoclax]	12.6	5.6	5.3	9.3	6.6	10.8	5.2	6.2	9.1	9.6
CNC(=O)CN1CCC(Oc2cc3c(Nc4cccc(Cl)c4F)ncnc3cc2OC)CC1 [Sapitinib]	4.2	0.3	10	10.4	0.2	0.9	14	9.4	13.8	14.7
CN1CCN(CCOc2cc(OC3CCOCC3)c3c(Nc4c(Cl)ccc5c4OCO5)ncnc3c2)CC1 [Saracatinib]	5	4.6	10	11	4.7	0.6	15.6	5.3	16.7	9.4
O=C(/C=C\n1cnc(-c2cc(C(F)(F)F)cc(C(F)(F)F)c2)n1)NNc1cnccn1 [Selinexor]	10.7	21.6	21.4	12.8	21.5	18.9	15.8	15.1	18.2	12.3
Cn1cnc2c(F)c(Nc3ccc(Br)cc3Cl)c(C(=O)NOCCO)cc21 [Selumetinib]	1.3	14.6	8.1	10.6	0.4	7.2	12.9	7.3	13.7	11.4
O=C(O)c1ccc2c(c1)nc(Nc1cccc(Cl)c1)c1ccncc12 [Silmitasertib]	4.9	6.9	5.2	4.5	2.55	6	4.1	3.6	6.3	7
CCS(=O)(=O)c1cccc(-c2cc(C(=O)NC3CCN(C)CC3)c(C)c3[nH]c4ncc(C)cc4c23)c1 [TAK-901]	0	2	5.7	7	1.15	1.2	1	2.2	5.3	1.2
COc1cc(Nc2ncc(F)c(Nc3ccc4c(n3)NC(=O)C(C)(C)O4)n2)cc(OC)c1OC [Tamatinib]	0	0	8.7	0.7	5.3	0	13	7.2	9.6	2.5
Cc1nc(-c2cn3c(n2)-c2ccc(-c4cnn(C(C)(C)C(N)=O)c4)cc2OCC3)n(C(C)C)n1 [Taselisib]	4.3	9.6	8.6	10.1	0.85	2.9	12.7	8.2	12.2	4.5
